Here are results for two compounds from ChEMBL document CHEMBL1140850, “Structure-activity relationships of lipopolysaccharide sequestration in guanylhydrazone-bearing lipopolyamines” (Bioorg Med Chem, 2009).

Calls of active or inactive are those of the source. The rule behind the calls is not given here.

One series has as its system J774.A1. Put plainly: Inhibition of LPS-induced NO production in mouse J774A1 cells by Griess assay. Format: functional, cell-based.
The test system of the next series is Blood. As to the kind of experiment: Inhibition of Escherichia coli 0111:B4 LPS-induced proinflammatory cytokine production in human whole blood after 4 hrs. In kind it is functional, tissue-based.
Series [1] deals with Mus musculus. Put plainly: Toxicity in Escherichia coli 0111:B4 LPS-induced lethality in CF1 mouse at 200 mg/kg, ip after 24 hrs. Format: organism-based. To be noted: in vivo. Also noted: dose 200 mg/kg, route intraperitoneal.
For series [2], the system named is Mus musculus. Put plainly: Toxicity in Escherichia coli 0111:B4 LPS-induced lethality in ip dosed CF1 mouse after 24 hrs. In kind it is organism-based. To be noted: in vivo.
For a further series, the system named is HEK293. Put plainly: Inhibition of LPS-induced NF-kappaB nuclear transactivation in HEK293 cells coexpressed with TLR4 assessed as alkaline phosphatase activity by spectrophotometry. In kind it is cell-based. To be noted: Homo sapiens.

As to `CCCCCCCCCCCCCCCCNC(=N)N/N=C/CCNCCCNCCCCNCCCN.O=C(O)C(F)(F)F`, the result with J774.A1 was Active. In addition, the values for the Activity entry in the series on Blood, in the series on Mus musculus [1] and with Mus musculus [2] were “Dose-dependent effect”, “Non-toxic” and “Dose-dependent effect”, respectively. The LD100 with Mus musculus [2] was 100 ng.

Take `CCCCCCCCCCCCCCCCNCCCNCCCCNCCCNCC/C=N/NC(=N)N`: the outcome in the series with J774.A1 and in the series on HEK293 was Active.
